In US20190337921A1, “TETRASUBSTITUTED ALKENE COMPOUNDS AND THEIR USE” (Eisai R&D Management Co., Ltd., priority 2016, published 2019):

Legend:
[1] = test system: MCF7 cells with ectopic expression of ERα Y537S/N/C, D538G; test: In vitro proliferation of wild-type and mutant ER-bearing MCF7 lines with clinical therapies (FIG. 1); type: cell-based, human
Procedure: 48 h post-transfection, virus containing media was filtered and added to MCF7 cells in the presence of 8 μg/ml polybrene overnight. Two days following infection, cells were placed under selection with 10 μg/ml blasticidin for 2 weeks for stable expression.
In parallel, cells were also seeded in a separate 96-well plate (8 wells/cell line, control plate) for which a CTG (CellTiter-Glo® Luminescent Viability Assay, Promega, Cat #G7572) was measured the following day (day 0 reading). The day 0 reading was used for the GI50 calculation at the termination of the experiment. The day following seeding, compounds were added to assay plates. Briefly, a 1:4 serial dilution was prepared in DMSO at 200× final concentration for a total of 10 concentrations (9 dilutions containing compound and one is DMSO only). Serially diluted compounds were pipetted into medium to prepare a compound-medium mix at 10× final concentration. 10 μl of compound-medium mix was added to MCF7-WT and —Y537S cells at 3 wells/concentration (triplicate for each concentration). On day 3, media-compound was removed and replaced with fresh media/compound as described above. On day 6. CTG was measured and compared to day 0 readings from control plate to assess GI50.

[2] = test system: MCF7-Y537S cells (Y537S ER, MCF7.7); test: In vitro proliferation (viability) assay, CellTiter-Glo, MCF7-Y537S; type: cell-based; conditions: Homo sapiens, CTG on day 6 compared to day 0, read-out: Y537S ER CTGlo MCF7.7 GI50 Mean
Procedure: (§1) MCF7 BUS cells (Coser, et al., (2003) PNAS 100(24): 13994-13999) were maintained in Dulbecco's Modified Eagle Medium supplemented with 10%/o FBS, 4 mM L-glutamine and 1× non-essential amino acids. Lenti-X 293T cells (Clontech, Cat #632180) were routinely cultured in Dulbecco's Modified Eagle Medium supplemented with 10% FBS.
(§2) The QuikChange II XL Site-Directed Mutagenesis Kit (Agilent Technologies, Cat #200523) was used to generate Y537S, Y537C, Y537N and D538G mutations within the ERα exon 8. […]
(§3) MCF7-WT and —Y537S cells were seeded at 1500 cells/well in black-walled 96-well plates (assay plates. Costar, Cat #3904). In parallel, cells were also seeded in a separate 96-well plate (8 wells/cell line, control plate) for which a CTG (CellTiter-Glo® Luminescent Viability Assay, Promega, Cat #G7572) was measured the following day (day 0 reading). The day 0 reading was used for the GI50 calculation at the termination of the experiment. […] CTG was measured and compared to day 0 readings from control plate to assess GI50.

[3] = test system: MCF7-WT cells (WT ER, MCF7.6); test: In vitro proliferation (viability) assay, CellTiter-Glo, MCF7-WT; type: cell-based; conditions: Homo sapiens, CTG on day 6 compared to day 0, read-out: WT ER CTGlo MCF7.6 GI50 Mean
Procedure: as §1, §2, §3

| GI50 [2] | GI50 [3] | SMILES | Resistance of ERα mutant-bearing MCF7 lines relative to control lines [1] |
| --- | --- | --- | --- |
|  |  | C[C@]12CC[C@@H]3c4ccc(O)cc4C[C@@H](CCCCCCCCC[S+]([O-])CCCC(F)(F)C(F)(F)F)[C@H]3[C@@H]1CC[C@@H]2O (some centres unmarked) [fulvestrant] | phenotypic resistance |
| 27.5 nM | 1.75 nM | CC/C(=C(/c1ccc(OCCNC/C=C/C(=O)N(C)C)cc1)c1ccc2[nH]ccc2c1)c1ccccc1 [Compound 102, (E)-4-(2-(4-((E)-1-(1H-indol-5-yl)-2-phenylbut-1-enyl)phenoxy)ethylamino)-N,N-dimethylbut-2-enamide] |  |
|  |  | O=C(c1ccc(OCCN2CCCCC2)cc1)c1c(-c2ccc(O)cc2)sc2cc(O)ccc12 [raloxifene] | phenotypic resistance |
|  |  | CC/C(=C(\c1ccccc1)c1ccc(OCCN(C)C)cc1)c1ccccc1 [tamoxifen] | phenotypic resistance |
